Data on 20 compounds can be found in PubChem BioAssay (NCI).

Some test systems named below: A549 NSCLC; K-562 leukemia; DU-145 prostate; MDA-MB-231 breast; HS 578T breast; UO-31 renal; SN12C renal; HCT-15 colon; PC-3 prostate; OVCAR-4 ovarian.
What all share (assay): NCI anticancer screen, dose series, 48 h

Molecules are shown by their SMILES.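 In this assay, cells in 96-well plates receive the compound at five concentrations for 48 hours. Endpoints are linearly interpolated between the surrounding concentrations. Definition used: TGI = concentration required for complete inhibition of growth.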

For the compound `CC(=O)O[C@H]1CCC2[C@@H]3CCC4NC(=O)C(C#N)C[C@]4(C)C3CC[C@@]21C` (some centres undefined), the TGI in the assay on A549 NSCLC, in the assay on K-562 leukemia, with DU-145 prostate, in the assay on MDA-MB-231 breast, with HS 578T breast and in the assay on UO-31 renal was more than 10 µM throughout. For the same compound, the TGI with SN12C renal, in the assay with HCT-15 colon, in the assay with PC-3 prostate and in the assay on OVCAR-4 ovarian was more than 10 µM throughout.

As to `Nn1c(Sc2nc3ccccc3c(=O)n2N)nc2ccccc2c1=O`, the TGI in the assay with A549 NSCLC is 39 µM; in the assay on K-562 leukemia, more than 100 µM; with DU-145 prostate, 56.8 µM; in the assay on MDA-MB-231 breast, 24.4 µM; in the assay with HS 578T breast, more than 53.7 µM; with UO-31 renal it was 3.26 µM. The TGI in the assay on SN12C renal was 18.8 µM; with HCT-15 colon, 16.5 µM; in the assay on PC-3 prostate, 28.4 µM; in the assay with OVCAR-4 ovarian it was more than 100 µM.

Regarding `CC1CN=C(c2ccc(CN3CCC(C4CCN(Cc5ccc(C6=NCC(C)N6)cc5)CC4)CC3)cc2)N1` (centres undefined), the TGI with A549 NSCLC was 46 µM; with K-562 leukemia, 44.8 µM; in the assay on DU-145 prostate it was 30.6 µM; in the assay on MDA-MB-231 breast it was 36.3 µM; in the assay with HS 578T breast, 41.8 µM; with UO-31 renal it was 58.4 µM. The TGI in the assay on SN12C renal came to 37 µM; in the assay with HCT-15 colon, 94.7 µM; with PC-3 prostate, 35.8 µM; in the assay on OVCAR-4 ovarian, 38.8 µM.

Take `O=C1/C(=C/c2ccc(O)cc2)CCC1CNc1ccccc1` (centres undefined): the TGI in the assay on A549 NSCLC stood at 34.8 µM; in the assay with K-562 leukemia, 4 µM; in the assay on DU-145 prostate it was 16.9 µM; in the assay with MDA-MB-231 breast it was 30.9 µM; in the assay with HS 578T breast, 57.6 µM; in the assay with UO-31 renal, 29 µM. Also, the TGI with SN12C renal turned out to be 29.2 µM; in the assay on HCT-15 colon it was 13.9 µM; with PC-3 prostate, 23.7 µM; with OVCAR-4 ovarian it was 33.3 µM.

`N#C/C(=C1/c2cc([N+](=O)[O-])ccc2-c2c1cc([N+](=O)[O-])cc2[N+](=O)[O-])N1CCCCC1`: the TGI with A549 NSCLC, in the assay with K-562 leukemia, in the assay with DU-145 prostate, in the assay with MDA-MB-231 breast, with HS 578T breast and in the assay on UO-31 renal was more than 100 µM each time. Further, the TGI is more than 100 µM in the assay with SN12C renal, more than 100 µM in the assay on HCT-15 colon, more than 100 µM with PC-3 prostate and 69.7 µM with OVCAR-4 ovarian.

On to `COC(=O)/C=c1/c2ccccc2n2c1c1ccccc1[n+]2C`, for which the TGI was 24.1 µM with A549 NSCLC; more than 100 µM in the assay with K-562 leukemia; 36.3 µM in the assay on DU-145 prostate; 26 µM in the assay on MDA-MB-231 breast; more than 100 µM in the assay on HS 578T breast; 20.4 µM with UO-31 renal. The TGI in the assay with SN12C renal worked out at 16.4 µM; in the assay with HCT-15 colon, 33.1 µM; in the assay on PC-3 prostate, 9.79 µM; in the assay on OVCAR-4 ovarian, 15.9 µM.

Consider `CCN1CCCn2c(=O)[nH]c3cc(Br)cc1c32`, for which the TGI in the assay on A549 NSCLC is more than 100 µM; with K-562 leukemia, more than 100 µM; in the assay on DU-145 prostate, more than 100 µM; with MDA-MB-231 breast, more than 100 µM; with HS 578T breast, 97.2 µM; in the assay on UO-31 renal it was more than 100 µM. In addition, the TGI with SN12C renal, in the assay on HCT-15 colon, with PC-3 prostate and in the assay on OVCAR-4 ovarian was more than 100 µM throughout.

As to `C[C@]12CC[C@H]3[C@@H](CCC4=C(Br)C(=O)C=C[C@@]43O)[C@@H]1CCC2=O`, the TGI in the assay on A549 NSCLC was more than 100 µM; with K-562 leukemia, more than 100 µM; in the assay with DU-145 prostate it was 68.7 µM; in the assay with MDA-MB-231 breast, more than 100 µM; in the assay on HS 578T breast it was more than 100 µM; in the assay on UO-31 renal it was more than 100 µM. The TGI in the assay on SN12C renal is more than 100 µM; with HCT-15 colon, 52.7 µM; in the assay on PC-3 prostate, more than 100 µM; in the assay with OVCAR-4 ovarian it was more than 100 µM.

As for `Clc1nc2c(C#Cc3ccccc3)ncnc2n1C1CCCCO1` (centres undefined), the TGI in the assay with A549 NSCLC was 37.3 µM; in the assay with K-562 leukemia it was more than 100 µM; in the assay with DU-145 prostate, 63.2 µM; in the assay on MDA-MB-231 breast, 48.4 µM; with HS 578T breast, 99.5 µM; in the assay on UO-31 renal, 25.1 µM. The TGI in the assay with SN12C renal was 23 µM; in the assay with HCT-15 colon, 31 µM; with PC-3 prostate, 43.2 µM; with OVCAR-4 ovarian, 35.9 µM.

Consider `CC(=O)NC(=O)NC1=NCCC(=O)N1CCc1c[nH]c2ccccc12`, for which the TGI in the assay on A549 NSCLC, in the assay with K-562 leukemia, with DU-145 prostate, in the assay with MDA-MB-231 breast, in the assay on HS 578T breast and in the assay on UO-31 renal was more than 100 µM each time. The TGI in the assay with SN12C renal, with HCT-15 colon, in the assay on PC-3 prostate and in the assay with OVCAR-4 ovarian was more than 100 µM in each case.

On to `Cc1c(C#N)c(=N)oc2ccccc12`, for which the TGI in the assay with A549 NSCLC, with K-562 leukemia, in the assay on DU-145 prostate, in the assay with MDA-MB-231 breast, with HS 578T breast and with UO-31 renal was more than 100 µM throughout. The TGI in the assay on SN12C renal, in the assay with HCT-15 colon, in the assay with PC-3 prostate and in the assay with OVCAR-4 ovarian was more than 100 µM each time.

For `Nc1ccc2c(c1)NC(=O)[C@@H]1CCCN1C2=O`, the TGI with A549 NSCLC, in the assay with K-562 leukemia, with DU-145 prostate, with MDA-MB-231 breast, with HS 578T breast and with UO-31 renal was more than 100 µM each time. The TGI in the assay with SN12C renal, with HCT-15 colon, in the assay on PC-3 prostate and in the assay on OVCAR-4 ovarian was more than 100 µM each time.

As for `COc1cc2oc(=O)cc(C)c2c(OC)c1OC(C)=O`, the TGI with A549 NSCLC, in the assay on K-562 leukemia, with DU-145 prostate, with MDA-MB-231 breast, with HS 578T breast and in the assay with UO-31 renal was more than 100 µM each time. The TGI in the assay with SN12C renal, with HCT-15 colon, in the assay on PC-3 prostate and in the assay on OVCAR-4 ovarian was more than 100 µM each time.

For the compound `Cn1c2ccc(C3=NCCN3)cc2c2cc(C3=NCCN3)ccc21`, the TGI in the assay on A549 NSCLC, in the assay on K-562 leukemia, in the assay with DU-145 prostate, in the assay with MDA-MB-231 breast, with HS 578T breast and in the assay on UO-31 renal was more than 100 µM each time. In addition, the TGI in the assay with SN12C renal, in the assay with HCT-15 colon, in the assay on PC-3 prostate and in the assay on OVCAR-4 ovarian was more than 100 µM throughout.

With `CC1CN=C(c2ccc(-c3nc(-c4ccc(C5=NCC(C)N5)cc4)nc(N(C)C)n3)cc2)N1` (centres undefined), the TGI in the assay with A549 NSCLC is 12.8 µM; in the assay with K-562 leukemia, 6 µM; with DU-145 prostate, 5.59 µM; with MDA-MB-231 breast it was 3.05 µM; in the assay with HS 578T breast it was 17.6 µM; in the assay with UO-31 renal, 19.9 µM. The TGI in the assay with SN12C renal was 3.87 µM; in the assay on HCT-15 colon it was 33.9 µM; with PC-3 prostate it was 4.42 µM; with OVCAR-4 ovarian, 3.67 µM.

Consider `CC(C)(Cc1ccccc1)N1C(=O)N1C(C)(C)Cc1ccccc1`, for which the TGI in the assay on A549 NSCLC was 77.7 µM; with K-562 leukemia, more than 100 µM; in the assay on DU-145 prostate, more than 100 µM; in the assay with MDA-MB-231 breast it was more than 100 µM; in the assay with HS 578T breast, more than 100 µM; in the assay with UO-31 renal, more than 100 µM. In addition, the TGI is more than 100 µM in the assay on SN12C renal, 68.2 µM with HCT-15 colon, more than 100 µM with PC-3 prostate and more than 100 µM with OVCAR-4 ovarian.

Turning to `CC(C)(C)C(=O)N1CCN(C=O)C1=S`, the TGI was more than 100 µM in the assay with A549 NSCLC; more than 100 µM in the assay on K-562 leukemia; more than 100 µM in the assay on DU-145 prostate; more than 100 µM in the assay with MDA-MB-231 breast; more than 100 µM with HS 578T breast; 60.2 µM in the assay with UO-31 renal. Further, the TGI in the assay with SN12C renal, in the assay on HCT-15 colon, in the assay with PC-3 prostate and with OVCAR-4 ovarian was more than 100 µM each time.

`Cc1cn(CCOCCOC(=O)NC(CCCNC(N)=O)C(=O)O)c(=O)[nH]c1=O` (centres undefined): the TGI in the assay on A549 NSCLC, with K-562 leukemia, in the assay on DU-145 prostate, in the assay on MDA-MB-231 breast, with HS 578T breast and in the assay on UO-31 renal was more than 100 µM each time. Further, the TGI in the assay on SN12C renal, in the assay on HCT-15 colon, with PC-3 prostate and with OVCAR-4 ovarian was more than 100 µM in each case.

With `CC1=CC[C@](C)(O)[C@@]2(C)CC[C@H]3C(=C(C)C)C(=O)C[C@]3(C)C[C@H]12`, the TGI in the assay on A549 NSCLC was more than 50 µM; in the assay on K-562 leukemia, 17 µM; in the assay on DU-145 prostate it was more than 50 µM; in the assay on MDA-MB-231 breast, more than 50 µM; in the assay on HS 578T breast, more than 50 µM; with UO-31 renal, more than 50 µM. The TGI with SN12C renal is more than 50 µM; in the assay with HCT-15 colon it was 46.2 µM; in the assay on PC-3 prostate it was more than 50 µM; in the assay on OVCAR-4 ovarian, more than 50 µM.

As to `C=CC(OC(C)=O)c1ccc(OC(C)=O)cc1` (centres undefined), the TGI in the assay with A549 NSCLC was 43.6 µM; in the assay with K-562 leukemia it was more than 100 µM; with DU-145 prostate, 27.1 µM; in the assay with MDA-MB-231 breast, 9.12 µM; in the assay with HS 578T breast, 16.6 µM; with UO-31 renal it was 4.25 µM. Moreover, the results for the TGI with HCT-15 colon, with PC-3 prostate and in the assay on OVCAR-4 ovarian were 23.5 µM, 7.82 µM and 37.5 µM, respectively.
